Changes are numbered by the printed parent chain. Several values for one entry are separate records, joined by “and”; a condition that tells them apart may be missing. Equal entries are not always repeated. Where two headings read alike, the source gives them in different places.
Experiments:
THIK-1 R92A = molecular target: T1, THIK-1 R92A (Homo sapiens, UniProt Q9HB14, R92A); experiment: Inside-out excised patch recordings, oocytes, THIK-1 R92A mutant (lipid activation); format: cell-based; conditions: for EC50: Linoleic acid EC50, THIK-1 R92A; for Fold activation with 30.0 µM linoleic acid: THIK-1 R92A
T1 construct: expressed in transfected cells; host or cells: Xenopus oocytes (mRNA injection)
T1 sequence (Q9HB14 1-408 R92A): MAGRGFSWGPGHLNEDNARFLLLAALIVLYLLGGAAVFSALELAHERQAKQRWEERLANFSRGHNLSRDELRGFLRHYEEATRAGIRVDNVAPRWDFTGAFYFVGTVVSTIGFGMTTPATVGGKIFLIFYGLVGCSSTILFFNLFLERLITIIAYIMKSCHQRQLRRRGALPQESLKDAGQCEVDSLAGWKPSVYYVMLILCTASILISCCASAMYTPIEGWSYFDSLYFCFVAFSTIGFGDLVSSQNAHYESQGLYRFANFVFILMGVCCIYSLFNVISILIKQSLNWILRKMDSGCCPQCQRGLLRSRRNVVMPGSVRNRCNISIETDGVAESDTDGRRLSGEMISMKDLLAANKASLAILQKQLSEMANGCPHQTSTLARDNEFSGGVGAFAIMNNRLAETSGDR
Description: (§1) Human K2P13.1 THIK-1 (GenBank accession number: NM_022054) and human K2P12.1 THIK-2 (NM_022055.1) were used in this study. For functional expression studies, the respective K^+ channel subtype coding sequences were subcloned into the oocyte expression vector pSGEM or the dual-purpose expression vector pFAW[41] and verified by sequencing. All mutant channels were obtained by site-directed mutagenesis and verified by sequencing. To increase surface expression and macroscopic currents, measurements of THIK-2 channels used a mutated ER retention motif, (R11A R12A R14A R15A R16A; THIK-2*)[20]. Vector DNA was linearized with NheI or MluI, and mRNA was synthesized in vitro using the SP6 or T7 AmpliCap Max High Yield Message Maker Kit (Cellscript, USA) or HiScribe T7 ARCA mRNA Kit (New England Biolabs).
(§2) Two-electrode voltage–clamp (TEVC) studies were performed in Xenopus oocytes. All animal use conformed to the Guide for the Care and Use of Laboratory Animals (NIH Publication 85–23), and all experiments using Xenopus toads were approved by the local ethics panels. Oocytes were stored at 17 °C in ND96 recording solution composed of (in mM): 96 NaCl, 2 KCl, 1.8 CaCl2, 1 MgCl2, 5 HEPES (pH 7.5 adjusted with NaOH and HCl), supplemented with Na-pyruvate (275 mg L^–1), theophylline (90 mg L^–1) and gentamicin (50 mg L^–1). Oocytes were injected with 1 ng mRNA for WT or mutant channels, and were incubated for 24–48 h at 17 °C. Two-electrode voltage clamp recordings were then performed as previously described[42],[43]. For macroscopic patch–clamp measurements, oocytes were obtained as described above incubated at 17 °C in a solution containing (mM): 54 NaCl, 30 KCl, 2.4 NaHCO3, 0.82 MgSO4 ×7 H2O, 0.41 CaCl2, 0.33 Ca(NO3)2 ×4 H2O and 7.5 TRIS (pH 7.4 adjusted with NaOH and HCl) for 1–4 days before use. Excised patch recordings in inside-out configuration conditions were performed at room temperature. Patch pipettes were made from thick-walled borosilicate glass GB 200TF-8P (Science Products), had resistances of 0.2–0.5 MΩ (tip diameter, 10–25 µm) and filled with a pipette solution (in mM): 120 KCl, 10 HEPES and 3.6 CaCl2 (pH 7.4 adjusted with KOH and HCl). Intracellular bath solutions and compounds were applied to the cytoplasmic side of excised patches for the various K^+ channels through a gravity flow multi-barrel pipette system. The intracellular solution had the following composition (in mM): 120 KCl, 10 HEPES, 2 EGTA and 1 pyrophosphate (pH adjusted with KOH and HCl). Currents were recorded with an EPC10 amplifier (HEKA Electronics) and sampled at 10 kHz or higher, with filtering set to 3 kHz (–3 dB) or higher, as appropriate for sampling rate. For measurements of GPCR activation, whole-cell currents were recorded for THIK-1 in transiently transfected HEK-293 cells. Cells were stimulated by a ramp protocol between −100 and +60 mV (holding potential, −80 mV). The pipette solution was composed of (in mM): 140 KCl, 2 MgCl2, 1 CaCl2, 2.5 EGTA and 10 HEPES (pH 7.3 adjusted with KOH and HCl). The extracellular bath solution had the following composition (in mM): 135 NaCl, 5 KCl, 2 MgCl2, 2 CaCl2, 10 glucose and 10 HEPES pH (pH 7.3 adjusted with NaOH and HCl). Oxotremorine M (Oxo-M) was added to extracellular bath solution to obtain the final concentration. Single-channel currents were recorded with an Axopatch 200B amplifier through a Digidata 1440A digitizer (Molecular Devices). Data were filtered at 2 kHz and recorded at a 200-kHz sampling rate with the program Clampex (Molecular Devices). Pipette solution and bath solution for cell-attached recordings contained (in mM): 140 KCl, 2 MgCl2, 1 CaCl2 and 10 HEPES (pH 7.4 adjusted with KOH and HCl). For inside-out recordings, the bath solution contained (in mM): 140 KCl, 2 MgCl2, 1 CaCl2 and 10 HEPES (pH 7.2 adjusted with KOH and HCl). All experiments were conducted at room temperature. […]

THIK-1 V269A = molecular target: T2, THIK-1 V269A (Homo sapiens, UniProt Q9HB14, V269A); experiment: Inside-out excised patch recordings, oocytes, THIK-1 V269A mutant; format: cell-based; conditions: for IC50: read-out: TPenA IC50
T2 construct: expressed in transfected cells; host or cells: Xenopus oocytes (mRNA injection)
T2 sequence (Q9HB14 1-408 V269A): T1 sequence (Q9HB14 1-408 R92A) with A92R, V269A
Description: as §1, §2

Structure (SMILES)	EC50 (THIK-1 R92A; individual recordings)	EC50 (THIK-1 R92A; mean) [µM]	Fold activation with 30.0 µM linoleic acid (THIK-1 R92A; individual recordings)	Fold activation with 30.0 µM linoleic acid (THIK-1 R92A; mean)	Normalized currents (THIK-1 V269A; THIK-1 V269A, 1 µM TPenA)	Normalized currents (THIK-1 V269A; THIK-1 V269A, 4 µM TPenA)	Normalized currents (THIK-1 V269A; THIK-1 V269A, 15.6 µM TPenA)	Normalized currents (THIK-1 V269A; THIK-1 V269A, 62.5 µM TPenA)	Normalized currents (THIK-1 V269A; THIK-1 V269A, 250 µM TPenA)	Normalized currents (THIK-1 V269A; THIK-1 V269A, 1000 µM TPenA)	Normalized currents (THIK-1 V269A; THIK-1 V269A, 4000 µM TPenA)	IC50 (THIK-1 V269A; THIK-1 V269A, mean) [µM]	IC50 (THIK-1 V269A; V269A mutant) [µM]
CCCCC/C=C\C/C=C\CCCCCCCC(=O)O [linoleic acid]	52.3 µM and 38.8 µM and 36.8 µM and 60.6 µM and 44.2 µM and 91.1 µM and 115 µM	62.6	1.900 and 2.280 and 2.410 and 2.160 and 1.740 and 1.840 and 1.500 and 1.630 and 1.510	1.89									
CCCCC[N+](CCCCC)(CCCCC)CCCCC [TPenA, tetrapentylammonium]					1.00	0.97	0.93	0.87	0.78	0.65	0.45	2200	2200
